Results reported in ChEMBL document CHEMBL5506036, “Exploring the Structural Attributes of Yoda1 for the Development of New-Generation Piezo1 Agonist Yaddle1 as a Vaccine Adjuvant Targeting Optimal T Cell Activation” (J Med Chem, 2024).
≈ marks a conversion by molar mass, not a printed value. Calls of active or inactive are those of the source. No cut-off for these calls is given here.

Assays:
[1] = molecular target: T1, Piezo-type mechanosensitive ion channel component 1 (Homo sapiens, UniProt Q92508); assay: Agonist activity at human PIEZO1 overexpressing HEK293-A cells co-expressing mCherry-piezo1 assessed as fold change in calcium influx at 20 uM by fluo-3 based real-time flow cytometric analysis; assay type: cell-based
[2] = molecular target: T1, Piezo-type mechanosensitive ion channel component 1; assay: Agonist activity at human PIEZO1 overexpressing HEK293-A cells co-expressing mCherry-piezo1 assessed as fold change in calcium influx at 15 uM by fluo-3 based real-time flow cytometric analysis; assay type: cell-based
[3] = molecular target: T1, Piezo-type mechanosensitive ion channel component 1; assay: Agonist activity at human PIEZO1 overexpressing HEK293-A cells co-expressing mCherry-piezo1 assessed as fold change in calcium influx at 10 uM by fluo-3 based real-time flow cytometric analysis; assay type: cell-based
[4] = molecular target: T1, Piezo-type mechanosensitive ion channel component 1; assay: Agonist activity at human PIEZO1 overexpressing HEK293-A cells co-expressing mCherry-piezo1 assessed as fold change in calcium influx at 0.1 uM by fluo-3 based real-time flow cytometric analysis; assay type: cell-based
[5] = molecular target: T1, Piezo-type mechanosensitive ion channel component 1; assay: Agonist activity at human PIEZO1 overexpressing HEK293-A cells co-expressing mCherry-piezo1 assessed as fold change in calcium influx at 5 uM by fluo-3 based real-time flow cytometric analysis; assay type: cell-based
[6] = molecular target: T1, Piezo-type mechanosensitive ion channel component 1; assay: Agonist activity at human PIEZO1 overexpressing HEK293-A cells co-expressing mCherry-piezo1 assessed as fold change in calcium influx at 1 uM by fluo-3 based real-time flow cytometric analysis; assay type: cell-based
[7] = molecular target: T1, Piezo-type mechanosensitive ion channel component 1; assay: Agonist activity at human PIEZO1 overexpressing HEK293-A cells co-expressing mCherry-piezo1 assessed as fold change in calcium influx at 0.5 uM by fluo-3 based real-time flow cytometric analysis; assay type: cell-based
[8] = molecular target: T1, Piezo-type mechanosensitive ion channel component 1; assay: Agonist activity at human PIEZO1 overexpressing HEK293-A cells co-expressing mCherry-piezo1 assessed as induction of calcium influx by fluo-3 based real-time flow cytometric analysis; assay type: cell-based
[9] = molecular target: T1, Piezo-type mechanosensitive ion channel component 1; assay: Agonist activity at human PIEZO1 overexpressing HEK293-A cells co-expressing mCherry-piezo1 assessed as induction of calcium influx by measuring maximum efficacy in fold change by fluo-3 based real-time flow cytometric analysis; assay type: cell-based; settings: filed as agonist
[10] = molecular target: T1, Piezo-type mechanosensitive ion channel component 1; assay: Agonist activity at PIEZO1 in human CD4+ T cell assessed as intracellular calcium influx measured for 30 mins by flow cytometry analysis; assay type: cell-based
[11] = molecular target: T1, Piezo-type mechanosensitive ion channel component 1; assay: Agonist activity at PIEZO1 in human CD4+ T cell assessed as fold increase in intracellular calcium influx measured for 30 mins by flow cytometry analysis; assay type: cell-based
[12] = molecular target: T1, Piezo-type mechanosensitive ion channel component 1; assay: Agonist activity at human PIEZO1 overexpressing HEK293-A cells co-expressing mCherry-piezo1 assessed as fold change in calcium influx at 25 uM by fluo-3 based real-time flow cytometric analysis; assay type: cell-based
[13] = Kinetic aqueous solubility of compound in PBS at pH 7.4 measured after 24 hrs by HPLC-UV analysis; assay type: physicochemical; settings: read-out: Kinetic_solubility
[14] = Cytotoxicity against human PBMC cells assessed as decrease in cell viability at 0.1 to 5 uM incubated for 6 hrs by MTT assay; assay type: toxicity, cell-based; settings: dose 0.1-5 µM
[15] = Cytotoxicity against human PBMC cells assessed as decrease in cell viability at 20 uM incubated for 24 hrs by MTT assay; assay type: toxicity, cell-based

T1 sequence (Q92508 whole entry): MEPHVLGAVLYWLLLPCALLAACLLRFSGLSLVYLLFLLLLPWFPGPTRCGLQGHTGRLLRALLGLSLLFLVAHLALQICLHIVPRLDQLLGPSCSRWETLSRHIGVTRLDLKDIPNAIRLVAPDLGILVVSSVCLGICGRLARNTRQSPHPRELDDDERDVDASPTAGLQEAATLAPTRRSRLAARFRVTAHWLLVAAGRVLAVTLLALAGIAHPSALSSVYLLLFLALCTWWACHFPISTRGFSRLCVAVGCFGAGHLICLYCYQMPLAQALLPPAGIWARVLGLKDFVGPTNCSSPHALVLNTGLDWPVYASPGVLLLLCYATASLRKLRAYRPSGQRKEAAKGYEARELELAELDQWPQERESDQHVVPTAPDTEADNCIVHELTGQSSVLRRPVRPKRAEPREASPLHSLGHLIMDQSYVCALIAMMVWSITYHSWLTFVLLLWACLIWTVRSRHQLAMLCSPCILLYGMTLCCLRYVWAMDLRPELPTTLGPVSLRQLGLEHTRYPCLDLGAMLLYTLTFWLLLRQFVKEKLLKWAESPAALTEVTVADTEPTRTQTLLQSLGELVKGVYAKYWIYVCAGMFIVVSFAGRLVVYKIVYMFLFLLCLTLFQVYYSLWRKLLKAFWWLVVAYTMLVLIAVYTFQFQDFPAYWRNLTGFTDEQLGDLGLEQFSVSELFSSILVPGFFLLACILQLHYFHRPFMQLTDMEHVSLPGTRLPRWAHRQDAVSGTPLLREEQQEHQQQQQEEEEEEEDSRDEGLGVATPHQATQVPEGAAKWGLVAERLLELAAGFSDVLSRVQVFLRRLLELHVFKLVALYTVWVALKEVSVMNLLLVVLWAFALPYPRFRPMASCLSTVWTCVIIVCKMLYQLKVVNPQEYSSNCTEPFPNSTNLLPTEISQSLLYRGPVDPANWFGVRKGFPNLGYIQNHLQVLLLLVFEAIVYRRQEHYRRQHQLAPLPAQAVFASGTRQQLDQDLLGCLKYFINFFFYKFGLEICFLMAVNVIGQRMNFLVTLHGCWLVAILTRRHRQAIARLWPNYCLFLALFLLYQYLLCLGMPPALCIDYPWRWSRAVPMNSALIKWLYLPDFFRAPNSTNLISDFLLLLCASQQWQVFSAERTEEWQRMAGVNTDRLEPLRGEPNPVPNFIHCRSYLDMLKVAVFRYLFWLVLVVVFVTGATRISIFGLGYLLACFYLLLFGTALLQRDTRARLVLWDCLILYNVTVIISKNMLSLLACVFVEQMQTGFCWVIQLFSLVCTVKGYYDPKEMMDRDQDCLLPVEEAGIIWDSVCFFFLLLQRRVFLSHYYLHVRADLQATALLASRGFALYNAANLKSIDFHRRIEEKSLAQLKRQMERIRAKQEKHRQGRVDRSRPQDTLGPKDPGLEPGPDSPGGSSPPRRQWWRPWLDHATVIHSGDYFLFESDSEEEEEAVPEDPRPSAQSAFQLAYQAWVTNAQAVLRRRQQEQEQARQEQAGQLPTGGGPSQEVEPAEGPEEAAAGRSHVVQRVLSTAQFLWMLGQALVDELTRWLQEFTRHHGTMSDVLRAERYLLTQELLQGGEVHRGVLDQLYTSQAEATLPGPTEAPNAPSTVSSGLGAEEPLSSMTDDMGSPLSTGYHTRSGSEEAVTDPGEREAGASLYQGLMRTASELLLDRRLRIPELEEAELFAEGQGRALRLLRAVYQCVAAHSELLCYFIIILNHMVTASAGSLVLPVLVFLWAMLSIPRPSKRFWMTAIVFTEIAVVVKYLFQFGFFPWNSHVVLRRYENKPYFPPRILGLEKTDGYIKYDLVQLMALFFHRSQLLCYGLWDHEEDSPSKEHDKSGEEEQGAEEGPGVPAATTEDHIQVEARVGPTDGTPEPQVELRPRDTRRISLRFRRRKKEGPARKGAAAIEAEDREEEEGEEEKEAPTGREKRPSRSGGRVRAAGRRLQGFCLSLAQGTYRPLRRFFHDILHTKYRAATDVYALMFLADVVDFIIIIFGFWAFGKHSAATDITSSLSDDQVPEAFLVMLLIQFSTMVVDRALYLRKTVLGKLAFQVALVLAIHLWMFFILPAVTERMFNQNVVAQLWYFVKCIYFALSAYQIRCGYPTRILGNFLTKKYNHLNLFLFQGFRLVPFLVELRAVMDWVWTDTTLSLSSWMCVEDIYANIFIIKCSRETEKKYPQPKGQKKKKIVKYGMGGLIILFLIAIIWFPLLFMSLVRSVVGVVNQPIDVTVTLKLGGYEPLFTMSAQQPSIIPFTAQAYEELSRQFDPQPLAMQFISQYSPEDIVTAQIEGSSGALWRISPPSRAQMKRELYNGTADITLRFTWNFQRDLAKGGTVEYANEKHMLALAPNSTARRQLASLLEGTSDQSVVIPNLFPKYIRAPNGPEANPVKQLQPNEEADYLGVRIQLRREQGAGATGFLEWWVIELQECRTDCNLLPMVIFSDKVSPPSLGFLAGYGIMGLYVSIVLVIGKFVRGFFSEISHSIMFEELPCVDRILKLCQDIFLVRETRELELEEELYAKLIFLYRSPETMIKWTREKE

SMILES	fold change (FC) [1]	fold change (FC) [2]	fold change (FC) [3]	fold change (FC) [4]	fold change (FC) [5]	fold change (FC) [6]	fold change (FC) [7]	EC50 [8] [nM]	fold change (FC) [9]	Activity [10]	fold change (FC) [11]	Activity [12]	solubility kinetic at 24 h [13] [µM]	Activity [14]	Activity [15]
O=c1oc(-c2cnccn2)nn1Cc1c(Cl)cccc1Cl	< 1.2	< 1.2	< 1.2	< 1.2	< 1.2	< 1.2	< 1.2	–	–	–	–	–	–	–	–
Clc1ccccc1CSc1nnc(-c2ccc[nH]2)o1	< 1.2	< 1.2	< 1.2	< 1.2	< 1.2	< 1.2	< 1.2	–	–	–	–	–	–	–	–
O=c1oc(-c2cnccn2)nn1Cc1ccccc1Cl	< 1.2	< 1.2	< 1.2	< 1.2	< 1.2	< 1.2	< 1.2	–	–	–	–	–	–	–	–
c1ccc(CSc2nnc(-c3cnccn3)o2)cc1	< 1.2	< 1.2	–	–	–	–	–	–	–	–	–	–	–	–	–
Clc1ccccc1CNc1nnc(-c2cnccn2)o1	< 1.2	< 1.2	< 1.2	< 1.2	< 1.2	< 1.2	< 1.2	–	–	–	–	–	–	–	–
Clc1cccc(Cl)c1CSc1nnc(-c2cnccn2)o1	> 1.2	> 1.2	> 1.2	< 1.2	> 1.2	> 1.2	< 1.2	1340	2.07	–	> 2	–	–	–	–
Clc1ccccc1CSc1nnc(-c2cnccn2)[nH]1	< 1.2	< 1.2	–	–	–	–	–	–	–	–	–	inactive	–	–	–
Brc1cccc(Br)c1CSc1nnc(-c2cnccn2)o1	> 1.2	< 1.2	> 1.2	< 1.2	> 1.2	> 1.2	> 1.2	2100	2.5	–	> 2	–	–	–	–
O=C([O-])Cc1ccccc1Nc1c(Cl)cccc1Cl.[Na+] [DICLOFENAC SODIUM]	–	–	–	–	–	–	–	–	–	–	–	–	205	–	–
CC/C(=C(/CC)c1ccc(O)cc1)c1ccc(O)cc1 [DIETHYLSTILBESTROL]	–	–	–	–	–	–	–	–	–	–	–	–	14.4 (≈ 3.85 µg/mL)	–	–
Clc1cccc(Cl)c1CSc1nnc(-c2cnccn2)s1	> 1.2	> 1.2	> 1.2	< 1.2	> 1.2	> 1.2	> 1.2	500	2.4	–	–	–	1.22 (≈ 0.433 µg/mL)	–	–
Clc1cccc(Cl)c1CSc1nnc(-c2ccc[nH]2)o1	< 1.2	< 1.2	< 1.2	< 1.2	< 1.2	< 1.2	< 1.2	–	–	–	–	–	–	–	–
Clc1cccc(Cl)c1CNc1nnc(-c2cnccn2)o1	< 1.2	< 1.2	< 1.2	< 1.2	< 1.2	< 1.2	< 1.2	–	–	–	–	–	–	–	–
Clc1cccc(Br)c1CSc1nnc(-c2cnccn2)o1	> 1.2	< 1.2	> 1.2	< 1.2	> 1.2	> 1.2	> 1.2	1040	2.9	–	> 2	–	–	–	–
Clc1cccc(Cl)c1CSc1nnc(-c2cnccn2)[nH]1	< 1.2	< 1.2	–	–	–	–	–	–	–	–	–	inactive	–	–	–
O=[N+]([O-])c1ccccc1CSc1nnc(-c2cnccn2)o1	< 1.2	< 1.2	–	–	–	–	–	–	–	–	–	–	–	–	–

Second part, led by results:

fold change (FC) [1]	fold change (FC) [2]	fold change (FC) [3]	fold change (FC) [4]	fold change (FC) [5]	fold change (FC) [6]	fold change (FC) [7]	EC50 [8] [nM]	fold change (FC) [9]	Activity [10]	fold change (FC) [11]	Activity [12]	solubility kinetic at 24 h [13] [µM]	SMILES	Activity [14]	Activity [15]
< 1.2	< 1.2	–	–	–	–	–	–	–	–	–	–	–	Brc1ccccc1CSc1nnc(-c2cnccn2)o1	–	–
< 1.2	< 1.2	–	–	–	–	–	–	–	–	–	–	–	Cc1ccccc1CSc1nnc(-c2cnccn2)o1	–	–
< 1.2	–	–	< 1.2	–	–	–	–	–	–	–	–	–	Clc1ccc(CSc2nnc(-c3cnccn3)o2)c(Cl)c1	–	–
> 1.2	> 1.2	> 1.2	< 1.2	< 1.2	< 1.2	< 1.2	9900	1.9	–	–	–	–	Brc1ccc(Br)c(CSc2nnc(-c3cnccn3)o2)c1	–	–
> 1.2	> 1.2	> 1.2	> 1.2	> 1.2	> 1.2	> 1.2	460	2.7	–	–	–	–	FC(F)(F)c1cccc(Br)c1CSc1nnc(-c2cnccn2)o1	–	–
< 1.2	< 1.2	–	–	–	–	–	–	–	–	–	–	–	N#Cc1ccccc1CSc1nnc(-c2cnccn2)o1	–	–
> 1.2	> 1.2	> 1.2	< 1.2	> 1.2	> 1.2	> 1.2	600	2.3	–	–	–	–	FC(F)(F)c1ccc(Br)c(CSc2nnc(-c3cnccn3)o2)c1	–	–
> 1.2	> 1.2	> 1.2	< 1.2	> 1.2	> 1.2	> 1.2	550	1.7	–	–	–	–	FC(F)(F)c1ccc(Cl)cc1CSc1nnc(-c2cnccn2)o1	–	–
> 1.2	> 1.2	> 1.2	< 1.2	> 1.2	> 1.2	< 1.2	1000	1.68	inactive	–	–	–	FC(F)(F)c1ccc(C(F)(F)F)c(CSc2nnc(-c3cnccn3)o2)c1	–	–
< 1.2	–	–	< 1.2	–	–	–	–	–	–	–	–	–	Clc1cccc(CSc2nnc(-c3cnccn3)o2)c1Cl	–	–
< 1.2	–	–	< 1.2	–	–	–	–	–	–	–	–	–	Fc1cccc(F)c1CSc1nnc(-c2cnccn2)o1	–	–
< 1.2	< 1.2	–	–	–	–	–	–	–	–	–	–	–	Clc1ccccc1CSc1nnc(-c2cnccn2)o1	–	–
< 1.2	< 1.2	–	–	–	–	–	–	–	–	–	–	–	Ic1ccccc1CSc1nnc(-c2cnccn2)o1	–	–
> 1.2	> 1.2	> 1.2	> 1.2	> 1.2	> 1.2	> 1.2	400	2.6	–	> 2	–	26.7 (≈ 9.96 µg/mL)	FC(F)(F)c1cccc(Cl)c1CSc1nnc(-c2cnccn2)o1	Non-Toxic	Non-Toxic
> 1.2	> 1.2	> 1.2	< 1.2	> 1.2	> 1.2	> 1.2	880	2.3	–	–	–	–	FC(F)(F)c1ccc(Cl)c(CSc2nnc(-c3cnccn3)o2)c1	–	–
< 1.2	< 1.2	–	–	–	–	–	–	–	–	–	–	–	Fc1ccccc1CSc1nnc(-c2cnccn2)o1	–	–
> 1.2	> 1.2	> 1.2	< 1.2	< 1.2	< 1.2	< 1.2	570	1.25	–	–	–	–	Clc1ccc(Cl)c(CSc2nnc(-c3cnccn3)o2)c1	–	–
> 1.2	> 1.2	> 1.2	< 1.2	< 1.2	< 1.2	< 1.2	2060	1.35	inactive	–	–	–	FC(F)(F)c1ccccc1CSc1nnc(-c2cnccn2)o1	Non-Toxic	Non-Toxic
> 1.2	< 1.2	> 1.2	< 1.2	> 1.2	< 1.2	< 1.2	1090	1.55	–	–	–	–	Fc1cccc(Cl)c1CSc1nnc(-c2cnccn2)o1	–	–
